From BindingDB's records for patent US20240124479 (Shanghai Meiyue Biotech Development Co., 2024)

These compounds were tested against T1, Pantetheinase (Homo sapiens, UniProt O95497) (assay: Vanin-1 Recombinant Enzyme Activity Inhibition Assay).
T1 sequence (O95497 whole entry): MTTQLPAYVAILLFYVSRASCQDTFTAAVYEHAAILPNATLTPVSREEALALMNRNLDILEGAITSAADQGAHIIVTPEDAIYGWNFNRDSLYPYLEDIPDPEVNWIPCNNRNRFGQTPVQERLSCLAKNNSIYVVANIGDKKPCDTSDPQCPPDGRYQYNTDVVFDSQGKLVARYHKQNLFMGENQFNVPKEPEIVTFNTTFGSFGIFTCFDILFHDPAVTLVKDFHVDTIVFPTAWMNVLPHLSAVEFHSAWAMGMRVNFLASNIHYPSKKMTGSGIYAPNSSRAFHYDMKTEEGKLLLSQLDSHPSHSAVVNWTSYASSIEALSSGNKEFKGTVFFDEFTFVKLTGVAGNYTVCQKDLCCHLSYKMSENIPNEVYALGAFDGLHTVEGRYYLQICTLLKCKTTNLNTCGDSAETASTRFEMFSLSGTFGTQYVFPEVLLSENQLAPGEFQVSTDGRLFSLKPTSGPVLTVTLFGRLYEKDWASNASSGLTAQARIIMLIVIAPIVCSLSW
Procedure: A certain mass of the compound was weighed precisely, and prepared with DMSO and reaction buffer (50 mM Tris base, 50 mM KCl, 1.6 mM cysteamine, 0.005% Brij 35, pH 8.0, prepared when using) to a maximum concentration of 10000 nM, then diluted in a 4-fold gradient, and prepared into 10 compound working solutions with different concentrations;for the activity inhibition reaction of recombinant human Vanin-1 (Biorab, JN0618), 2.5 μL of compound working solution and 5 μL of recombinant human Vanin-1 protein were first mixed.

SMILES | IC50
O=C(c1cnc(NCc2ccccc2)nc1)N1CCC2(CCOCC2)C1 [US20240124479, Compound 5] | 65 nM
CC(Nc1ncc(C(=O)N2CCC3(CCOCC3)C2)cn1)c1ccccc1 (stereo not given) [US20240124479, Compound 6] | 6 nM
O=C(c1cnc(NCc2ccc(F)cc2F)nc1)N1CCC2(CCOCC2)C1 [US20240124479, Compound 12] | 17 nM
C[C@@H](Nc1ncc(C(=O)N2CCC3(CCOCC3)C2)cn1)c1ccc(C(F)(F)F)cc1Cl [US20240124479, Compound 28] | 0.8 nM
CC(=O)N(C)[C@H]1CCN(C(=O)c2cnc(NC(C)c3ccc(F)cc3Cl)nc2)C1 (stereo not given in full) [US20240124479, Compound 39] | 1.8 nM
CC(=O)N(C)[C@H]1CCN(C(=O)c2cnc(N[C@H](C)c3ccc(C(F)(F)F)cc3F)nc2)C1 [US20240124479, Compound 41-P2] | 0.3 nM
CC(=O)N(C)[C@H]1CCN(C(=O)c2cnc(NC(C)c3ccc(C(F)(F)F)cc3F)nc2)C1 (stereo not given in full) [US20240124479, Compound 41] | 0.2 nM

Further lines, results first:

IC50 | SMILES
0.4 nM | CC(Nc1ncc(C(=O)N2CCC3(CCOCC3)C2)cn1)c1ccc(OC(F)F)cc1Cl (stereo not given) [US20240124479, Compound 27]
0.4 nM | C[C@H](Nc1ncc(C(=O)N2CCC3(CCOCC3)C2)cn1)c1ccc(C(F)(F)F)cc1Cl [US20240124479, Compound 29]
0.1 nM | CC(=O)N(C)[C@H]1CCN(C(=O)c2cnc(NC(C)c3c(F)cccc3C(F)(F)F)nc2)C1 (stereo not given in full) [US20240124479, Compound 38]
